The source of these data is patent publication US20040127504A1, “Benzimidazoles that are useful in treating sexual dysfunction” (priority 2002, published 2004).

The test system of data set [1] is Male Fitch ferrets. Further details: species or system ferret. The conditions noted are these: in vivo, sc. As for the experimental part:
Male Fitch ferrets (body weights 1.0-1.5 kg) were obtained from Marshall Farms. Ferrets were fasted overnight before experimentation. Apomorphine or a compound of the present invention was administrated subcutaneously; animals were placed individually in observation cages and the drug-induced emesis and signs of nausea were determined (by direct observation) for a period of 90 minutes following drug injection. Nausea was characterized by behaviors such as licking, gagging, backing, head burying, and intense abdominal grooming. Emesis was usually preceded by these behaviors and was characterized by rhythmic abdominal contractions which were associated with vomiting or retching movement.
Sterile saline was used as vehicle. Six animals were used per dose.

Regarding `c1ccc(N2CCN(Cc3nc4ccccc4[nH]3)CC2)nc1` [2-[(4-pyridin-2-ylpiperazin-1-yl)methyl]-1H-benzimidazole], in data set [1], the “induction of emesis in ferrets” value is on record as “did not induce emesis”.
In turn, `Oc1ccc(N2CCN(Cc3nc4ccccc4[nH]3)CC2)nc1` [6-[4-(1H-benzimidazol-2-ylmethyl)piperazin-1-yl]pyridin-3-ol] gave a melting point of 144 to 145 °C.
As for `c1cnc(N2CCN(Cc3nc4ccccc4[nH]3)CC2)nc1` [Example 2, 2-[(4-pyrimidin-2-ylpiperazin-1-yl)methyl]-1H-benzimidazole], the melting point fell in the range of 198 to 200 °C.
The compound `N#Cc1cccnc1N1CCN(Cc2nc3ccccc3[nH]2)CC1` [Example 4, 2-[4-(1H-benzimidazol-2-ylmethyl)piperazin-1-yl]nicotinonitrile] came in with a melting point of 208 to 210 °C.
Turning to `c1ccc2[nH]c(CN3CCN(c4nccs4)CC3)nc2c1` [Example 7, 2-{[4-(1,3-thiazol-2-yl)piperazin-1-yl]methyl}-1H-benzimidazole], the melting point fell in the range of 203 to 205 °C.
`O=C(N1CCCC1)n1c(CN2CCN(c3ccccn3)CC2)nc2ccccc21` [Example 9, 2-[(4-pyridin-2-ylpiperazin-1-yl)methyl]-1-(pyrrolidin-1-ylcarbonyl)-1H-benzimidazole] registered a melting point of 120 to 121 °C.
On the same count and under the same terms, next, `CN(C)C(=O)n1c(CN2CCN(c3ccccn3)CC2)nc2ccccc21` [Example 10, N,N-dimethyl-2-[(4-pyridin-2-ylpiperazin-1-yl)methyl]-1H-benzimidazole-1-carboxamide]: 174 to 176 °C.
On the same count and under the same terms, with `N#Cc1ccccc1N1CCN(Cc2nc3ccccc3[nH]2)CC1` [Example 12, 2-[4-(1H-benzimidazol-2-ylmethyl)piperazin-1-yl]benzonitrile] the figure was 236 to 237 °C; with `Clc1ccccc1N1CCN(Cc2nc3ccccc3[nH]2)CC1` [Example 13, 2-{[4-(2-chlorophenyl)piperazin-1-yl]methyl}-1H-benzimidazole], 245 to 246 °C; with `Fc1ccccc1N1CCN(Cc2nc3ccccc3[nH]2)CC1` [Example 14, 2-{[4-(2-fluorophenyl)piperazin-1-yl]methyl}-1H-benzimidazole], 262 to 264 °C.
`Oc1ccc(N2CCN(Cc3nc4ccccc4[nH]3)CC2)cc1` [Example 17, 4-[4-(1H-benzimidazol-2-ylmethyl)piperazin-1-yl]phenol] had a melting point of 206 to 209 °C.
The same measure, in the same setting: next, `CSc1ccccc1N1CCN(Cc2nc3ccccc3[nH]2)CC1` [Example 18, 2-({4-[2-(methylthio)phenyl]piperazin-1-yl}methyl)-1H-benzimidazole]: 214 to 216 °C.
Same read-out and setting: next, `Oc1ccccc1N1CCN(Cc2nc3ccccc3[nH]2)CC1` [Example 20, 2-[4-(1H-benzimidazol-2-ylmethyl)piperazin-1-yl]phenol]: 208 to 216 °C.
`CC1CN(c2ccccn2)CCN1Cc1nc2ccccc2[nH]1` (centres unmarked) [Example 24, 2-[(2-methyl-4-pyridin-2-ylpiperazin-1-yl)methyl]-1H-benzimidazole] showed a melting point of 207 to 209 °C.
The compound `C[C@H]1CN(c2ccccn2)CCN1Cc1nc2ccccc2[nH]1` [Example 25, 2-{[(2S)-2-methyl-4-pyridin-2-ylpiperazin-1-yl]methyl}-1H-benzimidazole] showed a melting point of 149 to 151 °C.
Take `C[C@@H]1CN(c2ccccn2)CCN1Cc1nc2ccccc2[nH]1` [Example 26, 2-{[(2R)-2-methyl-4-pyridin-2-ylpiperazin-1-yl]methyl}-1H-benzimidazole]: the melting point is 151 to 153 °C.
Compound `Fc1cccnc1N1CCN(Cc2nc3ccccc3[nH]2)CC1` [Example 28, 2-{[4-(3-fluoropyridin-2-yl)piperazin-1-yl]methyl}-1H-benzimidazole] came in with a melting point of 210 to 212 °C.

As usually defined, the melting point is the temperature, or range, at which the solid turns liquid.
